Here are results for five molecules from US8946249B2, “Compound, certain novel forms thereof, pharmaceutical compositions thereof and methods for preparation and use” (Hutchinson Medipharma Limited, priority 2009, dated 2015).

The nature of data set [1]: Hygroscopicity, saturated salt solution method. The settings on record: 10 days, 25° C.; for Stability under the testing humidity conditions: crystalline form unchanged; for Hygroscopicity (in words): saturated NaCl solution. Format: physicochemical. The method, then:
The desiccator was closed and left standing for 10 days at 25° C. Then the samples were taken out and weighed again, and the weight gain was calculated.

Data set [2] can be described thus: Thermodynamic stability comparison, slurry of Form I and Form II mixture. In kind it is physicochemical. The settings on record: 1 g each of Form I and Form II in 10 mL methanol, 60° C., 20 h, powder X-ray diffraction. The source says:
Then the suspension was filtered with a Buchner funnel and paper disk, and dried under a vacuum oven.

Data set [3] addresses T1, hERG channels (Homo sapiens, UniProt Q12809).
T1 construct: expressed in transfected cells; host or cells: CHO
In words: hERG whole-cell patch clamp in CHO cells stably transfected with hERG cDNA. In kind it is cell-based. The settings on record: CHO cells expressing hERG, tail current; read-out: hERG current inhibition IC50. The method, then: A CHO cell line stably transfected with hERG cDNA and expressing hERG channels was used for the study. Cells were cultured in a medium comprising:
Before testing, cells were harvested using an Accumax (Innovative Cell Technologies).
Whole-cell recording was performed using a 700B (Axon Instruments). The cells were voltage clamped at a holding potential of −80 mV. The hERG current was activated by depolarizing at +20 mV for 2 sec, after which the current was taken back to −50 mV for 2 sec to remove the inactivation and observe the deactivating tail current. The first step at −50 mV was used as a baseline for measuring the tail current peak amplitude.
Test compound was prepared as a 10 mM DMSO stock solution in a glass vial. The stock solution was mixed vigorously for 10 minute at room temperature. The stock solution was diluted in a glass vial using External Solution; the dilution was prepared no longer than 30 minutes before use. Equal amounts of DMSO (0.1%) were present at final dilution.
After achieving whole-cell configuration, the cells were monitored for 90 sec to assess stability and washed with external solution for 66 sec. The voltage protocol described above was then applied to the cells every 20 sec throughout the whole procedure. […]
Data were analyzed using Clampfit (both by Axon Instruments) and Origin 7 (Originlab Corporation).

Data set [4] deals with T2, recombinant human KDR catalytic domain (Homo sapiens, UniProt P35968).
T2 construct: 300 ng/mL of recombinant human KDR catalytic domain
T2 sequence (P35968 834-1162 limits assumed): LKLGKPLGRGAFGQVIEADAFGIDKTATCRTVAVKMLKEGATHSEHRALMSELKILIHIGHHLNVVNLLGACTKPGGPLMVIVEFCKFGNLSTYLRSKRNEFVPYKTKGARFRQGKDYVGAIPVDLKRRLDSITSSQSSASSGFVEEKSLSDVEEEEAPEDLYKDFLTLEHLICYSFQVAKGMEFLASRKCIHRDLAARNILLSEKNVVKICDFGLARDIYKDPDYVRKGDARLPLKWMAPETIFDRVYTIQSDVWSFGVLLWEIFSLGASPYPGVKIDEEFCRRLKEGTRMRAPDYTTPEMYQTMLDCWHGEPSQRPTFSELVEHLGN
As to the kind of experiment: KDR kinase inhibition, Z'-LYTE assay kit. Format: biochemical. The settings on record: 10 μM ATP, 1 μM Tyr1 peptide, 25° C., 1 hour. The procedure: The KDR kinase inhibition activity of the above three compounds is tested using the Z-Lyte assay kit.
Z′-LYTE™ Tyr1 peptide (Invitrogen, Cat. PV3190) is used to test the KDR kinase inhibitory activity of the above three compounds. The testing system contains 300 ng/mL of recombinant human KDR catalytic domain, 10 μM of ATP, 1 μM of substrate peptide, and a test compound at a series of different concentrations in 384-well plate (Thermo Labsystems, Cat. 7805); total volume is 10 μL. The enzymatic inhibition proceeds at room temperature (25° C.) for 1 hour on the shaker, followed by addition of 5 μL of enhancer and incubation for an additional 1 hour at room temperature on the shaker. 5 μL of stop solution is added to stop the reaction. The KDR kinase inhibition activity of a test compound is calculated based on the method recommended by the manufacturer. The IC50 values of the KDR kinase inhibition activity are calculated using XLfit software.
(1) Dilution of the test compounds: each of the above three compounds is dissolved in DMSO to prepare a […] stock solution and stored in −20° C. freezer. The stock solution is diluted to the four times concentration of the desired test concentration with 8% DMSO before use. […]
(7) Kinase inhibition: Add the following components in turn in a 384-well plate. […] Seal the plate with aluminum foil and allow the reaction to proceed at room temperature (25° C.) for 1 hour on the shaker (250 rpm). • e) Dilution of enhancer solution (right before use): according to the recommendation of manufacturer, dilute enhancer stock with development dilution buffer 128-fold. • f) Fluorescence enhancement: add 5 μL/well of the diluted enhancer solution in all wells, briefly spin at 1000 rpm, re-seal the plate and let the reaction proceed at room temperature for an additional hour on the shaker. • g) Add 5 μL/well of stop solution to all wells, briefly spin at 1000 rpm. Mix at room temperature for 2 minutes on the shaker, and read florescence signals on Victor3 (Perkin Elmer) at excitation 400 nm, emission 445 nm/530 nm. […]

Data set [5] can be described thus: Pharmacokinetics study in mice. In kind it is in vivo. The settings on record: male, ICR; mouse plasma, single oral dose 10 mg/kg. The procedure: Experimental Method: The pharmacokinetics of the test compounds were studied with male ICR mice (n=6 for each group, weight 20˜30 g) after a single intraveneous (i.v.) and oral (p.o.) dosing at 2.5 and 10 mg/kg, respectively. For i.v. dosing formulation, the test compound was dissolved in DMSO (0.25%)-solutol (10%)-ethanol (10%)-physiological saline (79.75%) at the concentration of 0.25 mg/mL. And the p.o. dosing formulation (1 mg/mL) was prepared with 0.5% CMC-Na. After i.v. or p.o. dosing, blood samples were collected via the ophthalmic vein at 0 (pre-dose), 5, 15, 30 min and 1, 1.5, 2, 4, 8, 24 h, anti-coagulated with heparin-Na. After centrifugation, plasma samples were separated and protein precipitated with acetonitrile (containing internal standard). The concentration of the testing compounds in these plasma samples were then determined by LC/MS/MS.

Data set [6] has as its target T3, FGFR1 kinase (Homo sapiens, UniProt P11362).
T3 construct: purchased Invitrogen PV3146
As to the kind of experiment: FGFR1 kinase activity assay, Transcreener FP. The settings on record: 10 μM ATP, 60 minutes, room temperature. Format: biochemical. The procedure: The Transcreener FP technology of Bellbrook Labs is used in the FGFR1 kinase activity assay. The kinase reaction was done in 96-well half area black plate (Greiner, Cat. 675076). In each well, were added 5 μL of test compounds in 5% DMSO, 10 μL of 0.3 ng/μL FGFR1 kinase (Invitrogen, PV3146) diluted in assay buffer. The reaction was started by the addition of 10 of 62.5 ng/μL poly (Glu:Tyr, 4:1) substrate (Sigma, P0275) and 25 μmol/L of ATP mixture, and incubated for 60 minutes at room temperature. The final conditions for kinase assay were: 10 μM of ATP, 0.12 ng/μL of FGFR1 kinase, 25 ng/μL of substrate, 53.6 mmol/L of HEPES (pH 7.5), 21.6 mmol/L of MgCl2, 0.536 mmol/L of MnCl2, 1 mmol/L of DTT and 0.01% Triton X-100, 1% DMSO.
At the same time, an ADP standard curve was performed. The standard curve mimics a kinase reaction in the absence of test compound, kinase, and lipid substrate. The standard curve contained 12 concentration points, and total [ATP+ADP] ranged from 10 μM to 0.01 μM. […]
After reacting for 60 minutes at room temperature, 25 μL of transcreener Kinase Kit reagent—ADP Detection Mix—(Bellbrook Labs) was added and reacted for an additional 1.0 hours. The plates were then read in Tecan Infinite F500 at an excitation of 610 nm and an emission of 670 nm. […] The inhibition of test compound on ADP production was calculated based on ADP concentration calculated from standard curve. […]

T1 sequence (Q12809 whole entry): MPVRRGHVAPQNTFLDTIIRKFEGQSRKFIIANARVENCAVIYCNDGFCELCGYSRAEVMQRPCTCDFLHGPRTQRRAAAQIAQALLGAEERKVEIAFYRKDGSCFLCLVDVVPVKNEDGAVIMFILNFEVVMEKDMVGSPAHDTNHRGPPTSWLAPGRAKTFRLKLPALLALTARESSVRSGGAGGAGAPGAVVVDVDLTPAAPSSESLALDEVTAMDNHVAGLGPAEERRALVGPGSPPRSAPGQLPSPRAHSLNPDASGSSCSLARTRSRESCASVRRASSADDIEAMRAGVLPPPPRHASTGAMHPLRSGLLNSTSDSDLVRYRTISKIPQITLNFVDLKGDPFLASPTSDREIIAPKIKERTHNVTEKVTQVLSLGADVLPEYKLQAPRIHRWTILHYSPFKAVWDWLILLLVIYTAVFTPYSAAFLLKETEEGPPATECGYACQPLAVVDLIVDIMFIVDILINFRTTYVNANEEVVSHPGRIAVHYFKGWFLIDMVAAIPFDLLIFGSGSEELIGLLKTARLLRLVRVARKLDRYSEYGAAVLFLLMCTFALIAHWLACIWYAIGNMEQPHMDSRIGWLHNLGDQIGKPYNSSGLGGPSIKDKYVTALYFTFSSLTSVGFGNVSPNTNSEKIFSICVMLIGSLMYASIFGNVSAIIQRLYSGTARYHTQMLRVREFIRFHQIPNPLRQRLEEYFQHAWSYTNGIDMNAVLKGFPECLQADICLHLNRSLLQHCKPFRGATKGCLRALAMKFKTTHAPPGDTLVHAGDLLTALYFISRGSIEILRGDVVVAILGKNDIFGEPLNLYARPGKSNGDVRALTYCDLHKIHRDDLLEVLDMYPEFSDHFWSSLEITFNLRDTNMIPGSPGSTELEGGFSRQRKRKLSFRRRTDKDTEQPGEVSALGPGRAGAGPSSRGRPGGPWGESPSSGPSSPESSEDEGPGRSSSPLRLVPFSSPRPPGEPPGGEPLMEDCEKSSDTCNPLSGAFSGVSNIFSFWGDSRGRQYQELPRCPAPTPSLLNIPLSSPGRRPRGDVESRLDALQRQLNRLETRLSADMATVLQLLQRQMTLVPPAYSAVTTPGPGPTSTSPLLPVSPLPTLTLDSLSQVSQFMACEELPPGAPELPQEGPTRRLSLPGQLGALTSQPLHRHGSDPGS
T3 sequence (P11362 22-822): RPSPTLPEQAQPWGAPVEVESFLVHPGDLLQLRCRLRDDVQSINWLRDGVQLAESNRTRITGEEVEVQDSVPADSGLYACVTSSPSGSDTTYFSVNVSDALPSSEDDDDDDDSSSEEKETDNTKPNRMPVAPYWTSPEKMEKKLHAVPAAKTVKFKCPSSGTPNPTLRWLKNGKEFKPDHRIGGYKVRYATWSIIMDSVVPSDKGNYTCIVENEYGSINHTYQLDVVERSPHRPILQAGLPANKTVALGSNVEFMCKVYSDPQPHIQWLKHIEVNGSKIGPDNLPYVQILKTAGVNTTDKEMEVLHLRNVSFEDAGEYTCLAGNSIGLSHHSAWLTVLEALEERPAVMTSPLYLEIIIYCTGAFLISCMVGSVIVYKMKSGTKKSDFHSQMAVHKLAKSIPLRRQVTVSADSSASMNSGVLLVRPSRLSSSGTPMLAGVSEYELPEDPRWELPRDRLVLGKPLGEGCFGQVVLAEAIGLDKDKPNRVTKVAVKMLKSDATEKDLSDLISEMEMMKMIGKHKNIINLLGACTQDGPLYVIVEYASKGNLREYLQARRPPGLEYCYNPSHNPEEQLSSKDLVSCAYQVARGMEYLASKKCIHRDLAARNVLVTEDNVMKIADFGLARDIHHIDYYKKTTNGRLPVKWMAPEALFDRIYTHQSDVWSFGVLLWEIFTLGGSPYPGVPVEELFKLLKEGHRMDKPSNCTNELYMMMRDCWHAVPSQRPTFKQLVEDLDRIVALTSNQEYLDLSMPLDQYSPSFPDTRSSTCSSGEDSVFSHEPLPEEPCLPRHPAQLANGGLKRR

As for `Cc1cc2cc(Oc3ccnc(Nc4cccc(CS(=O)(=O)NCCN(C)C)c4)n3)ccc2[nH]1` [Form II, Form II N-(2-(dimethylamino)ethyl)-1-(3-((4-((2-methyl-1H-indol-5-yl)oxy)pyrimidin-2-yl)amino)phenyl)methanesulfonamide], in data set [1], the “Stability under the testing humidity conditions” value is recorded as “stable” and the “Hygroscopicity (in words)” value is on record as “slightly hygroscopic”. Moreover, the “Thermodynamic stability, form after slurry” value in data set [2] is on record as “transformed to the Form I”.
In the case of `Cc1cc2c(F)c(Nc3ccnc(Nc4cccc(OCCN5CCOCC5)c4)n3)ccc2[nH]1` [compound of Formula C, N^4-(4-fluoro-2-methyl-1H-indol-5-yl)-N^2-(3-(2-morpholinoethoxy)phenyl)pyrimidine-2,4-diamine, reference compound], the IC50 in data set [3] is 547 nM; in data set [4] it was 111 nM.
As to `Cc1cc2cc(Oc3ccnc(Nc4cccc(CS(=O)(=O)NCCN(C)C)c4)n3)ccc2[nH]1` [Form I, Form I N-(2-(dimethylamino)ethyl)-1-(3-((4-((2-methyl-1H-indol-5-yl)oxy)pyrimidin-2-yl)amino)phenyl)-methanesulfonamide], the “Stability under the testing humidity conditions” value in data set [1] is on record as “stable”. Besides, the “Hygroscopicity (in words)” value in data set [1] (listed as Form I sample) is given as “non-hygroscopic”. Besides, the “Thermodynamic stability, form after slurry” value in data set [2] is on record as “physically and/or thermodynamically more stable than Form II”.
`Cc1cc2cc(Oc3ccnc(Nc4cccc(CS(=O)(=O)NCCN(C)C)c4)n3)ccc2[nH]1` [Compound A, N-(2-(dimethylamino)ethyl)-1-(3-((4-((2-methyl-1H-indol-5-yl)oxy)pyrimidin-2-yl)amino)phenyl)-methanesulfonamide]: the IC50 came to 6800 nM in data set [3], 21 nM in data set [4] and 53 nM in data set [6]. In data set [5], this molecule displayed an exposure (AUC) of 397 ng·h/mL. The molecule further returned a Cmax in data set [5] of 138 ng/mL.
`CNS(=O)(=O)Cc1cccc(Nc2nccc(Oc3ccc4[nH]c(C)cc4c3)n2)c1` [Compound B, N-methyl-1-(3-((4-((2-methyl-1H-indol-5-yl)oxy)pyrimidin-2-yl)amino)phenyl)methanesulfonamide, reference compound]: the IC50 in data set [4] was 38 nM. Also, in data set [5], the AUC was determined as 26 ng·h/mL and the peak level (Cmax) was 20 ng/mL.

As a reminder, the IC50 is the concentration at which inhibition is half-maximal. Broadly, the AUC is concentration integrated over time. As usually defined, the Cmax is the peak of the concentration-time curve.
